“And” between values parts separate entries of the source, which are not always exact repeats. Equal values may be shown once.
Tests used:
[1] = target: T1, Aβ depositions in Tg2576 mouse brain (Homo sapiens, UniProt P05067); assay: Ex vivo autoradiography using Tg2576 and wild-type mice; type: in vivo; settings: Tg2576 mice, 30 min postinjection
T1 construct: Aβ(1–40) aggregates, the predominant amyloid found in CAA; tissue Taconic Farms, Inc. (New York, USA); host or cells: brain of living female Tg2576 transgenic mice
Experimental: Tg2576 transgenic mice (female, 29 months old) and wild-type mice (female, 29 months old) were used as the AD model and age-matched control, respectively. A saline solution (150 μL) of [^99mTc]SB2A or [^99mTc]BT2B (18.5 MBq) containing EtOH (30 μL) was injected through the tail vein. The mice were sacrificed at 30 min postinjection. The brains were immediately removed, embedded in carboxymethylcellulose solution and then frozen in a dry ice/hexane bath. Sections of 30 μm were cut and exposed to a BAS imaging plate (Fuji Film) overnight. Autoradiographic images were obtained using a BAS5000 scanner system (Fuji Film). After autoradiographic examination, the same sections were stained by thioflavin-S to confirm the presence of Aβ depositions. For thioflavin-S fluorescent staining, the sections were immersed in a 100 μM thioflavin-S solution containing 50% EtOH for 3 min, washed in 50% EtOH for 1 min two times, and examined using a microscope (Keyence Corp.) equipped with a GFP-BP filter set. Additionally, the same sections were immunostained by anti-CD31 antibody to confirm the presence of endothelial cells. For immunohistochemical staining of CD31, the sections were incubated in PBST for 5 min three times, and incubated with anti-CD31 primary antibody (SZ31; Abcam, Cambridgeshire, U.K., dilution 1:50) at room temperature overnight. After three 5-min incubations in PBST, anti-rabbit secondary antibody (Dako, California, USA) incubation was carried out at room temperature for 3 h. Subsequently, the sections were incubated in PBST for 5 min three times, and incubated with diaminobenzidine (Merck) as a chromogen for 5 min. After washing with water, the sections were observed under a microscope (Keyence Corp.).
Ex vivo autoradiography using Tg2576 and wild-type mice. Tg2576 transgenic mice (female, 29 months old) and wild-type mice (female, 29 months old) were used as the Alzheimer’s model and age-matched control, respectively. A saline solution (150 µL) of [^99mTc]BT2B (18.5 MBq) containing ethanol (30 µL) was injected through the tail vein. […]

[2] = Ex vivo biodistribution in normal mice; set-up: species or system ddY mice; settings: i.v., mean (SD), 5 animals
Experimental: To evaluate brain uptake of ^99mTc-Ham complexes, biodistribution experiments of ^99mTc-Ham complexes were performed in normal mice. We selected ^18F-florbetapir as a control and compared the results of ^99mTc-Ham complexes with that of ^18F-florbetapir (Fig. 2). The brain uptake of [^99mTc]SB1A, [^99mTc]SB2A, [^99mTc]BT1B, and [^99mTc]BT2B at 2 min postinjection was 0.37, 0.28, 0.36, and 0.37% injected dose (ID)/g, respectively. The radioactivity in the brains remained low until 60 min postinjection. The results of the biodistribution study are shown in Table S1 in Supplementary information.
A saline solution (100 μL) of ^99mTc-Ham complexes (20 kBq) containing EtOH (10 μL) was injected directly into the tail vein of ddY mice (male, 5 weeks old). The mice were sacrificed at 2, 10, 30, and 60 min postinjection. The organs of interest were removed and weighed, and radioactivity was measured using a γ counter (PerkinElmer). The %ID/g of samples was calculated by comparing the sample counts with the count of the diluted initial dose.
*Corresponding author: M. Ono. Address: 46-29 Yoshida Shimoadachi-cho, Sakyo-ku, Kyoto 606-8501, Japan, Phone: +81-75-753-4608, Fax: +81-75-753-4568, E-mail: ono@pharm.kyoto-u.ac.jp. Ex vivo biodistribution in normal mice. A saline solution (100 μL) of ^99mTc-Ham complexes (20 kBq) containing EtOH (10 μL) was injected directly into the tail vein of ddY mice (male, 5 weeks old). The mice were sacrificed at 2, 10, 30, and 60 min postinjection. The organs of interest were removed and weighed, and radioactivity was measured using a γ counter (Wallac 1470 Wizard; PerkinElmer, Massachusetts, USA). Percentage dose per organ was calculated by comparing the tissue counts to suitably diluted aliquots of the injected material. The %dose/g of samples was calculated by comparing the sample counts with the count of the diluted initial dose.

T1 sequence (P05067 672-711 limits assumed): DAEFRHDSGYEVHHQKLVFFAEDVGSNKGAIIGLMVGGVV

CN(C)c1ccc(-c2nc3ccc(C4=N[O][99Tc-]5(=[O])([NH]4)[NH2+]C(c4ccc6nc(-c7ccc(N(C)C)cc7)sc6c4)=N[O]5)cc3s2)cc1 [[^99mTc]BT2B]
Selectivity for vascular versus parenchymal amyloid aggregates (ex vivo autoradiography, thioflavin-S and anti-CD31 staining) [1]: specific detection of CAA | Biodistribution of radioactivity, Blood ([2]; 2 min after injection): 23.15 (4.78) % injected dose per gram | Biodistribution of radioactivity, Brain ([2]; 2 min after injection): 0.37 % injected dose per gram and 0.37 (0.11) % injected dose per gram | Biodistribution of radioactivity, Heart ([2]; 2 min after injection): 9.48 (4.83) % injected dose per gram | Biodistribution of radioactivity, Intestine ([2]; 2 min after injection): 1.32 (0.21) % injected dose per gram | Biodistribution of radioactivity, Kidney ([2]; 2 min after injection): 6.04 (0.96) % injected dose per gram | Biodistribution of radioactivity, Liver ([2]; 2 min after injection): 23.21 (5.72) % injected dose per gram | Biodistribution of radioactivity, Lung ([2]; 2 min after injection): 22.06 (3.09) % injected dose per gram | Biodistribution of radioactivity, Pancreas ([2]; 2 min after injection): 2.81 (0.35) % injected dose per gram | Biodistribution of radioactivity, Spleen ([2]; 2 min after injection): 10.83 (1.58) % injected dose per gram | Biodistribution of radioactivity, Stomach ([2]; 2 min after injection): 0.69 (0.12) % injected dose per organ | Biodistribution of radioactivity, Blood ([2]; 10 min after injection): 10.05 (1.78) % injected dose per gram | Biodistribution of radioactivity, Brain ([2]; 10 min after injection): 0.20 (0.04) % injected dose per gram | Biodistribution of radioactivity, Heart ([2]; 10 min after injection): 8.62 (2.34) % injected dose per gram | Biodistribution of radioactivity, Intestine ([2]; 10 min after injection): 1.97 (0.26) % injected dose per gram | Biodistribution of radioactivity, Kidney ([2]; 10 min after injection): 5.02 (0.40) % injected dose per gram | Biodistribution of radioactivity, Liver ([2]; 10 min after injection): 33.78 (6.07) % injected dose per gram | Biodistribution of radioactivity, Lung ([2]; 10 min after injection): 11.97 (1.01) % injected dose per gram | Biodistribution of radioactivity, Pancreas ([2]; 10 min after injection): 2.19 (0.35) % injected dose per gram | Biodistribution of radioactivity, Spleen ([2]; 10 min after injection): 14.49 (3.50) % injected dose per gram | Biodistribution of radioactivity, Stomach ([2]; 10 min after injection): 3.77 (0.56) % injected dose per organ | Biodistribution of radioactivity, Blood ([2]; 30 min after injection): 3.72 (0.49) % injected dose per gram | Biodistribution of radioactivity, Brain ([2]; 30 min after injection): 0.10 (0.02) % injected dose per gram | Biodistribution of radioactivity, Heart ([2]; 30 min after injection): 6.67 (1.52) % injected dose per gram | Biodistribution of radioactivity, Intestine ([2]; 30 min after injection): 6.44 (1.04) % injected dose per gram | Biodistribution of radioactivity, Kidney ([2]; 30 min after injection): 3.47 (0.57) % injected dose per gram | Biodistribution of radioactivity, Liver ([2]; 30 min after injection): 31.45 (3.39) % injected dose per gram | Biodistribution of radioactivity, Lung ([2]; 30 min after injection): 5.38 (1.16) % injected dose per gram | Biodistribution of radioactivity, Pancreas ([2]; 30 min after injection): 1.14 (0.25) % injected dose per gram | Biodistribution of radioactivity, Spleen ([2]; 30 min after injection): 10.91 (1.59) % injected dose per gram | Biodistribution of radioactivity, Stomach ([2]; 30 min after injection): 6.47 (1.37) % injected dose per organ | Biodistribution of radioactivity, Blood ([2]; 60 min after injection): 1.81 (0.44) % injected dose per gram | Biodistribution of radioactivity, Brain ([2]; 60 min after injection): 0.05 (0.01) % injected dose per gram | Biodistribution of radioactivity, Heart ([2]; 60 min after injection): 7.08 (1.34) % injected dose per gram | Biodistribution of radioactivity, Intestine ([2]; 60 min after injection): 13.90 (1.52) % injected dose per gram | Biodistribution of radioactivity, Kidney ([2]; 60 min after injection): 3.13 (0.48) % injected dose per gram | Biodistribution of radioactivity, Liver ([2]; 60 min after injection): 35.76 (3.34) % injected dose per gram | Biodistribution of radioactivity, Lung ([2]; 60 min after injection): 4.50 (0.60) % injected dose per gram | Biodistribution of radioactivity, Pancreas ([2]; 60 min after injection): 1.27 (0.28) % injected dose per gram | Biodistribution of radioactivity, Spleen ([2]; 60 min after injection): 4.80 (0.63) % injected dose per gram | Biodistribution of radioactivity, Stomach ([2]; 60 min after injection): 4.20 (1.21) % injected dose per organ
